Patent publication US20030206932A1, “Novel topical compositions” (priority 1994, published 2003)

Assay: Solubility parameter δ estimated from tabulated molecular substituent constants (Fedors)
Conditions: difference to the solubility parameter of retinol
From the text: Solubility attributes of two or more materials with respect to each other are generally reflected in the “solubility parameter”, δ, which is expressed in the units (cal/cm^3)^1/2.
The value of the solubility parameter can be estimated from tabulated molecular substituent constants such as those described by Fedors. These substituent constants can be found in Solubility and Related Properties by Kenneth C. […] Generally, according to Textbook of Polymer Science, 2nd Ed., Billmeyer, solubility can be expected if the difference of the solubility parameters of two materials is less than about 2 units.

Compound | δN − δRETINOL
CC1CC(OC(=O)c2ccccc2O)CC(C)(C)C1 (stereo not drawn) [Homomenthyl Salicylate] | 1.14 (cal/cm^3)^1/2
CC1CCC(C(C)C)C(OC(=O)c2ccccc2N)C1 (stereo not drawn) [Menthyl Anthranilate] | 0.13 (cal/cm^3)^1/2
CCCCC(CC)COC(=O)C(C#N)=C(c1ccccc1)c1ccccc1 (stereo not drawn) [Octocrylene] | 0.74 (cal/cm^3)^1/2
CCCCC(CC)COC(=O)c1ccc(N(C)C)cc1 (stereo not drawn) [Octyl Dimethyl PABA] | −0.33 (cal/cm^3)^1/2
CCCCC(CC)COC(=O)C=Cc1ccc(OC)cc1 (stereo not drawn) [Octyl Methoxy Cinnamate] | −0.29 (cal/cm^3)^1/2
DEA Methoxysalicylate | 2.94 (cal/cm^3)^1/2
